The test concerns the target ATR-interacting protein/Serine/threonine-protein kinase ATR (Homo sapiens, UniProt Q13535). Briefly: ATR/ATRIP Kinase Assay. The procedure:
The ATR/ATRIP enzymatic assay is performed as a TR-FRET-(HTRF™, Cisbio Bioassays) based 384-well assay. In a first step, purified human recombinant ATR/ATRIP (human ATR, full length, GenBank ID: NM_001184.3, and human ATRIP, full length, GenBank ID AF451323.1, co-expressed in a mammalian cell line) is incubated in assay buffer for 15 minutes at 22° C. with test compound at different concentrations or without test compound (as a negative control). The assay buffer contains 25 mM HEPES pH 8.0, 10 mM Mg(CH3COO)2, 1 mM MnCl2, 0.1% BSA, 0.01% Brij 35, and 5 mM dithiothreitol (DTT). An Echo 555 (Labcyte) is used for dispensing of compound solutions. […] The generation of phosphorylated p53 as a result of the ATR mediated reaction in the presence of ATP is detected by using specific antibodies [labeled with the fluorophores europium (Eu) as donor and d2 as acceptor (Cisbio Bioassays)] enabling FRET. […] Following signal development for 2 h the plates are analyzed in an EnVision (PerkinElmer) microplate reader using the TRF mode with laser excitation. Upon excitation of the donor europium at 340 nm the emitted fluorescence light of the acceptor d2 at 665 nm as well as from the donor Eu at 615 nm are measured. The amount of phosphorylated p53 is directly proportional to the ratio of the amounts of emitted light i.e. the ratio of the relative fluorescence units (rfu) at 665 nm and 615 nm. […]

Data on one compound can be found in BindingDB's records for patent US12371430 (Merck Patent, 2025).

Chain of ATR-interacting protein/Serine/threonine-protein kinase ATR (Q8WXE1 whole entry): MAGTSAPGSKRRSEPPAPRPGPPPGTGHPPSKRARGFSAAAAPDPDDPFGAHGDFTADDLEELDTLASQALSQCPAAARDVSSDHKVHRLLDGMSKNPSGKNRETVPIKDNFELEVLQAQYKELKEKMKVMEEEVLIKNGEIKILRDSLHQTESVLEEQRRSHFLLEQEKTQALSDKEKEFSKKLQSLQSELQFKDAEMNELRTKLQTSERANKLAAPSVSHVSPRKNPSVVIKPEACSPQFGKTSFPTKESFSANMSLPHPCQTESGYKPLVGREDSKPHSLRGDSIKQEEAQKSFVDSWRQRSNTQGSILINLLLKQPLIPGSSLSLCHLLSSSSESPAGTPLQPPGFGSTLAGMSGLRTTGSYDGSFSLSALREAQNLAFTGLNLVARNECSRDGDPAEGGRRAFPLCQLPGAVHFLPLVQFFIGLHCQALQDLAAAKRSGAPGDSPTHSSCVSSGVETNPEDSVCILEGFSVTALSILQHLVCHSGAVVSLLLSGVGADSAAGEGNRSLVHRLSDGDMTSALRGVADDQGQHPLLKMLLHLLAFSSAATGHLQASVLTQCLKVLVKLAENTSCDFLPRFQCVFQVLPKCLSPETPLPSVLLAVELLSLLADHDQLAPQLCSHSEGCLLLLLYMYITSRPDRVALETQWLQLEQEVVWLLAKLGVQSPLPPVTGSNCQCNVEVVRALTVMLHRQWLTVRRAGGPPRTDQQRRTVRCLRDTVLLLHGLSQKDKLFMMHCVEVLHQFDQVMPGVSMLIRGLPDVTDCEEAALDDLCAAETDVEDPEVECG
Chain of ATR-interacting protein/Serine/threonine-protein kinase ATR (Q13535 whole entry): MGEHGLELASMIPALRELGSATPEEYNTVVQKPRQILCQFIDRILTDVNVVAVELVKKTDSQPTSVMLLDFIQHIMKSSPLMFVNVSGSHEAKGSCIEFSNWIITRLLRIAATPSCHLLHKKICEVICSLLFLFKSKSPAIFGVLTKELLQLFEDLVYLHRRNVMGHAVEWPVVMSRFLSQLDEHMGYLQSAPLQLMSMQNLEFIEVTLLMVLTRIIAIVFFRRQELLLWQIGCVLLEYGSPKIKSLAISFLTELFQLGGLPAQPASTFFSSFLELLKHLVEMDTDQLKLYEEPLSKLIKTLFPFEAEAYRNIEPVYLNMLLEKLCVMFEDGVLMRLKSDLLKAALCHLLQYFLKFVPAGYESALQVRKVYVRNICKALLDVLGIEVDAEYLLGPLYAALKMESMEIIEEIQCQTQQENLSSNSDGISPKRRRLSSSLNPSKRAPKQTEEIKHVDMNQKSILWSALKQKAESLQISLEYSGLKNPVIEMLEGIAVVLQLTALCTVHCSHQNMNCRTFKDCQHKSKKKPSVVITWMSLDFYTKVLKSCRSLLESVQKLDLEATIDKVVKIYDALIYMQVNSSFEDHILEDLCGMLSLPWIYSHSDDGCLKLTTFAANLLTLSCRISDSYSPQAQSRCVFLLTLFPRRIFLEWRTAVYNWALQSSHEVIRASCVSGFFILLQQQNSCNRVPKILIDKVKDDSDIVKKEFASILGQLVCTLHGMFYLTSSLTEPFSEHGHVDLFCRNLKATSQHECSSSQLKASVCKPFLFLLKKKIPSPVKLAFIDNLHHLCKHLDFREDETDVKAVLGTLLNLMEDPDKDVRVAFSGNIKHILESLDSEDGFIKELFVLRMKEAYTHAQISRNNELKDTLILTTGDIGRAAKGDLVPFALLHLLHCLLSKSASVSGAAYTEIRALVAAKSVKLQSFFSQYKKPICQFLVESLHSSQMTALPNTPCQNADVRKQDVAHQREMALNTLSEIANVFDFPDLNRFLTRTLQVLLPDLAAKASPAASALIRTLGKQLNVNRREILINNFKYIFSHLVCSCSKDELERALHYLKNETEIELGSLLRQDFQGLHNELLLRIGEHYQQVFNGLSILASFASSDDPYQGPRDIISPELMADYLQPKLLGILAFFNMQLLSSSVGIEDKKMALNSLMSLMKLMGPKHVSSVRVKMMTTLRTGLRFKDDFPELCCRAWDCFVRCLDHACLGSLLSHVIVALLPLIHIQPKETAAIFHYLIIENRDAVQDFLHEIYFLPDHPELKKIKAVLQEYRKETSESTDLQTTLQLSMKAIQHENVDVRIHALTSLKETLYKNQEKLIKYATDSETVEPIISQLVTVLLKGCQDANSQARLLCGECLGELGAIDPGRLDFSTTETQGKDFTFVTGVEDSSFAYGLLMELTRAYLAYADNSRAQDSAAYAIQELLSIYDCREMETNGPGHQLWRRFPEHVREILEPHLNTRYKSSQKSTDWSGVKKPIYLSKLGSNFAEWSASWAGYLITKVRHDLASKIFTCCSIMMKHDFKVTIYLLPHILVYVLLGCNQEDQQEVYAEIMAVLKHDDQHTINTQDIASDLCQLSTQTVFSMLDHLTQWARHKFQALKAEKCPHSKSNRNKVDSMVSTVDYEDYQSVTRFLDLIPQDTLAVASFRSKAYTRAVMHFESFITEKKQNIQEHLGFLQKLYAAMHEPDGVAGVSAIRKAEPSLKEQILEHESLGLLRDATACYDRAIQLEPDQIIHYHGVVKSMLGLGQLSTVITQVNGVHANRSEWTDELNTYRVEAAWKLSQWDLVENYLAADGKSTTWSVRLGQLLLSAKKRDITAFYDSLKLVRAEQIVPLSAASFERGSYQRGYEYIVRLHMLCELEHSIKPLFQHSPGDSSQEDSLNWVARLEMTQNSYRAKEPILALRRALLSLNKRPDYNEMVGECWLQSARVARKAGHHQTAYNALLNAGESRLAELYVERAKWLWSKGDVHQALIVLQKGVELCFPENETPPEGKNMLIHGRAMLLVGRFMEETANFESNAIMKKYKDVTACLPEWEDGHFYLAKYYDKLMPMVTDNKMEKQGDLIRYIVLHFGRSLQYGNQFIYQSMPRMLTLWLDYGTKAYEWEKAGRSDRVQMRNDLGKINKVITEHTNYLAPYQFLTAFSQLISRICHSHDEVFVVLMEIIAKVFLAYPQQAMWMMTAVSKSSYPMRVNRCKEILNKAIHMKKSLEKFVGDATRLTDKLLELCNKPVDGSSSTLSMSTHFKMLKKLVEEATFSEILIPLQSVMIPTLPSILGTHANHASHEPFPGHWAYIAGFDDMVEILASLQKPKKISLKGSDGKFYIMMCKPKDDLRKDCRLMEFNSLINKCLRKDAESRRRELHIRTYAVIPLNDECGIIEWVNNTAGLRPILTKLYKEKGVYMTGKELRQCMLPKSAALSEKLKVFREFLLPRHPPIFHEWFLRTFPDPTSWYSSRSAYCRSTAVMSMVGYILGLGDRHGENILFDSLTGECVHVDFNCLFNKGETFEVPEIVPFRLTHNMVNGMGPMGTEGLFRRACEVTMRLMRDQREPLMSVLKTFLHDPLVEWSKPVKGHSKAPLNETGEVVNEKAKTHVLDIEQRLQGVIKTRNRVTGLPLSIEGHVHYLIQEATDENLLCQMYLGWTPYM

With `C[C@@H]1COCCN1c1cc(C2CCS(=O)(=O)CC2)c2c(n1)c(-c1ccn[nH]1)nn2C` [US12371430, Compound 82], the IC50 worked out at 0.8 nM.
